{"source": "patent US20250171438A1", "about": "(Agios Pharmaceuticals, Inc., priority 2022, published 2025)", "data": [{"target": "T1, human PAH with the R408W mutation (Homo sapiens, UniProt P00439, R408W)", "T1 construct": "expressed in transfected cells", "T1 sequence (P00439 1-452 R408W)": "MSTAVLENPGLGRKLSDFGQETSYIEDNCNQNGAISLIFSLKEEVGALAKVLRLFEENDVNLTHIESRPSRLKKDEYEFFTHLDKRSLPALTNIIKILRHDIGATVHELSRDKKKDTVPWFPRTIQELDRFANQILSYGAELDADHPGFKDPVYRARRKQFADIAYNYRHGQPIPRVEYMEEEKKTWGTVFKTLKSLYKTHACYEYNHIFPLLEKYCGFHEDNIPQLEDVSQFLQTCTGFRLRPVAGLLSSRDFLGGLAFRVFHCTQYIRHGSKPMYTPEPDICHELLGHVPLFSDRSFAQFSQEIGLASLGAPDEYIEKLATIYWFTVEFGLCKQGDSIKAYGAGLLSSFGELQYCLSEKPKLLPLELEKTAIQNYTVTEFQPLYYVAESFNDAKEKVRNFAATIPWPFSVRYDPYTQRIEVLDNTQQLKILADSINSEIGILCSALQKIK", "assay": "Cell Based Phenylalanine Flux Assay", "design": "scale not given here", "details": "A375 cells expressing human R408W PAH; 24 hrs compound incubation; 13C-Tyrosine by LC-MS; average where tested multiple times; read-out: AC50", "units": {"AC50": "nM"}, "values": [{"compound": "O=C(c1nncs1)N1CCc2[nH]cnc2[C@H]1c1nc2cc(F)ccc2s1", "note": "[Example 1299, (S)-(4-(5-fluorobenzo[d]thiazol-2-yl)-6,7-dihydro-1H-imidazo[4,5-c]pyridin-5(4H)-yl)(1,3,4-thiadiazol-2-yl)methanone]", "AC50": "1000 to 5000"}, {"compound": "O=C(c1oc(NC2CC2)nc1C(F)(F)F)N1CCCc2[nH]cnc2[C@H]1c1nc2ccccc2s1", "note": "[Example 2127, (S)-(4-(benzo[d]thiazol-2-yl)-7,8-dihydroimidazo[4,5-c]azepin-5(1H,4H,6H)-yl)(2-(cyclopropylamino)-4-(trifluoromethyl)oxazol-5-yl)methanone]", "AC50": "1000 to 5000"}, {"compound": "O=C(c1ccno1)N1CCc2[nH]cnc2[C@H]1c1nc2cc(F)ccc2s1", "note": "[Example 2153, (S)-(4-(5-fluorobenzo [d]thiazol-2-yl)-6,7-dihydro-1H-imidazo[4,5-c]pyridin-5(4H)-yl) (iso xazol-5-yl)methanone]", "AC50": "1000 to 5000"}, {"compound": "CC(C)n1ncnc1C(=O)N1CCc2[nH]cnc2[C@@H]1c1nc2c(F)cccc2s1", "note": "[Example 2040, (R)-(4-(4-fluorobenzo[d]thiazol-2-yl)-6,7-dihydro-1H-imidazo[4,5-c]pyridin-5(4H)-yl)(1-isopropyl-1H-1,2,4-triazol-5-yl)methanone]", "AC50": "1000 to 5000"}, {"compound": "O=C(c1sc(C2CC2)nc1Cl)N1CCc2[nH]cnc2[C@H]1c1nc2c(F)cccc2s1", "note": "[Example 1631]", "AC50": "500 to 1000"}, {"compound": "O=C(c1nccs1)N1CCc2nc[nH]c2[C@@H]1c1nc2c(F)cccc2s1", "note": "[Example 1119, (R)-(4-(4-fluorobenzo[d]thiazol-2-yl)-6,7-dihydro-3H-imidazo[4,5-c]pyridin-5(4H)-yl)(thiazol-2-yl)methanone]", "AC50": "1000 to 5000"}, {"compound": "O=C(c1nccs1)N1CCc2[nH]cnc2[C@@H]1c1nc2cccc(F)c2s1", "note": "[Example 1102, (R)-(4-(7-fluorobenzo[d]thiazol-2-yl)-6,7-dihydro-1H-imidazo[4,5-c]pyridin-5(4H)-yl)(thiazol-2-yl)methanone]", "AC50": "1000 to 5000"}, {"compound": "O=C(c1oc(C2(O)CC2)nc1C(F)F)N1CCc2[nH]cnc2[C@H]1c1nc2c(F)cccc2s1", "note": "[Example 1995]", "AC50": "< 500"}, {"compound": "Cc1cccc2sc([C@@H]3c4nc[nH]c4CCN3C(=O)c3ocnc3C#N)nc12", "note": "[Example 2019, (S)-5-(4-(4-methylbenzo[d]thiazol-2-yl)-4,5,6,7-tetrahydro-1H-imidazo[4,5-c]pyridine-5-carbonyl)oxazole-4-carbonitrile]", "AC50": "< 500"}, {"compound": "O=C(c1ccn2ncccc12)N1CCc2[nH]cnc2[C@H]1c1nc2ccccc2s1", "note": "[Example 1529]", "AC50": "500 to 1000"}, {"compound": "O=C(c1cnn2ccc(Br)cc12)N1CCc2[nH]cnc2[C@@H]1c1nc2cccc(F)c2s1", "note": "[Example 1284, (R)-(5-bromopyrazolo[1,5-a]pyridin-3-yl)(4-(7-fluorobenzo[d]thiazol-2-yl)-6,7-dihydro-1H-imidazo[4,5-c]pyridin-5(4H)-yl)methanone]", "AC50": "1000 to 5000"}, {"compound": "Cc1ccc2c(C(=O)N3CCc4[nH]cnc4[C@@H]3c3nc4c(C)cccc4s3)cnn2c1", "note": "[Example 1296, (R)-(4-(4-methylbenzo[d]thiazol-2-yl)-6,7-dihydro-1H-imidazo[4,5-c]pyridin-5(4H)-yl)(6-methylpyrazolo[1,5-a]pyridin-3-yl)methanone]", "AC50": "1000 to 5000"}, {"compound": "O=C(c1oc(C2CC2)nc1C(F)F)N1CCc2[nH]cnc2[C@H]1c1nc2ccccc2s1", "note": "[Example 1621]", "AC50": "< 500"}, {"compound": "CN(C)CCc1ccc2c(C(=O)N3CCc4[nH]cnc4[C@@H]3c3nc4ccccc4s3)cnn2c1", "note": "[Example 1454, (R)-(4-(benzo[d]thiazol-2-yl)-6,7-dihydro-1H-imidazo[4,5-c]pyridin-5(4H)-yl)(6-(2-(dimethylamino)ethyl)pyrazolo[1,5-a]pyridin-3-yl)methanone]", "AC50": "> 5000"}, {"compound": "Cc1nc(-c2ccccn2)oc1C(=O)N1CCc2[nH]cnc2[C@@H]1c1nc2c(F)cccc2s1", "note": "[Example 1446, (R)-(4-(4-fluorobenzo[d]thiazol-2-yl)-6,7-dihydro-1H-imidazo[4,5-c]pyridin-5(4H)-yl)(4-methyl-2-(pyridin-2-yl)oxazol-5-yl)methanone]", "AC50": "> 5000"}, {"compound": "CC[C@H](O)c1nc(C(F)F)c(C(=O)N2CCc3[nH]cnc3[C@H]2c2nc3c(F)cccc3s2)o1", "note": "[Example 2063]", "AC50": "< 500"}, {"compound": "C[C@@H](O)c1nc(C(F)F)c(C(=O)N2CCc3[nH]cnc3[C@H]2c2nc3c(F)cccc3s2)o1", "note": "[Example 1980, (4-(difluoromethyl)-2-((R)-1-hydroxyethyl)oxazol-5-yl) ((S)-4-(4-fluorobenzo[d]thiazol-2-yl)-6,7-dihydro-1H-imidazo[4,5-c]pyridin-5(4H)-yl)methanone]", "AC50": "< 500"}, {"compound": "Cc1nc(-c2cnn(C)c2)oc1C(=O)N1CCc2[nH]cnc2[C@@H]1c1nc2ccccc2s1", "note": "[Example 1375, (R)-(4-(benzo[d]thiazol-2-yl)-6,7-dihydro-1H-imidazo[4,5-c]pyridin-5(4H)-yl)(4-methyl-2-(1-methyl-1H-pyrazol-4-yl)oxazol-5-yl)methanone]", "AC50": "1000 to 5000"}, {"compound": "O=C(c1oc(C2CC(F)(F)C2)nc1C(F)F)N1CCc2[nH]cnc2[C@@H]1c1nc2ccccc2s1", "note": "[Example 1785, (R)-(4-(benzo[d]thiazol-2-yl)-6,7-dihydro-1H-imidazo[4,5-c]pyridin-5(4H)-yl)(2-(3,3-difluorocyclobutyl)-4-(difluoromethyl)oxazol-5-yl)methanone]", "AC50": "< 500"}, {"compound": "Cc1cnc(CCC(=O)N2CCc3[nH]cnc3[C@H]2c2nc3ccccc3s2)s1", "note": "[Example 1031]", "AC50": "500 to 1000"}, {"compound": "O=C(CCc1nccs1)N1CCc2[nH]cnc2[C@@H]1c1nc2ccc(Br)cc2s1", "note": "[Example 1082, (R)-1-(4-(6-bromobenzo[d]thiazol-2-yl)-6,7-dihydro-1H-imidazo[4,5-c]pyridin-5(4H)-yl)-3-(thiazol-2-yl)propan-1-one]", "AC50": "> 5000"}, {"compound": "O=C(c1cnn2ccccc12)N1CCc2[nH]cnc2[C@@H]1c1nc2cccc(F)c2[nH]1", "note": "[Example 991, (R)-(4-(7-fluoro-1H-benzo[d]imidazol-2-yl)-6,7-dihydro-1H-imidazo[4,5-c]pyridin-5(4H)-yl)(pyrazolo[1,5-a]pyridin-3-yl)methanone]", "AC50": "> 5000"}, {"compound": "O=C(CC1CC1)N1CCc2[nH]cnc2[C@H]1c1nc2ccc(F)cc2[nH]1", "note": "[Example 964, (S)-2-cyclopropyl-1-(4-(6-fluoro-1H-benzo[d]imidazol-2-yl)-6,7-dihydro-1H-imidazo[4,5-c]pyridin-5(4H)-yl)ethanone]", "AC50": "500 to 1000"}, {"compound": "O=C(c1cnc(-c2ccc(F)cc2)o1)N1CCc2[nH]cnc2[C@H]1c1nc2ccccc2s1", "note": "[Example 2117]", "AC50": "< 500"}, {"compound": "O=C(c1nnc(N2CCOCC2)o1)N1CCc2[nH]cnc2[C@H]1c1nc2ccccc2s1", "note": "[Example 1585]", "AC50": "500 to 1000"}, {"compound": "O=C(c1cn(CC2CC(F)(F)C2)nc1Cl)N1CCc2[nH]cnc2[C@H]1c1nc2c(F)cccc2s1", "note": "[Example 2003, (S)-(3-chloro-1-((3,3-difluorocyclobutyl)methyl)-1H-pyrazol-4-yl)(4-(4-fluorobenzo[d]thiazol-2-yl)-6,7-dihydro-1H-imidazo[4,5-c]pyridin-5(4H)-yl)methanone]", "AC50": "< 500"}, {"compound": "O=C(c1cnn2ccc(Cl)cc12)N1CCc2[nH]cnc2[C@@H]1c1nc2ccc(Br)cc2[nH]1", "note": "[Example 966, (R)-(4-(6-bromo-1H-benzo[d]imidazol-2-yl)-6,7-dihydro-1H-imidazo[4,5-c]pyridin-5(4H)-yl)(5-chloropyrazolo[1,5-a]pyridin-3-yl)methanone]", "AC50": "> 5000"}]}, {"target": "T1, human PAH with the R408W mutation", "assay": "Cell Based Phenylalanine Flux Assay", "design": "scale not given here", "details": "A375 cells expressing human R408W PAH; 24 hrs with compound; 13C-Tyrosine by LC-MS; average where tested multiple times", "values": [{"compound": "COCc1ccc2c(C(=O)N3CCc4[nH]cnc4C3c3nc4ccccc4s3)c(C(F)F)nn2c1", "note": "(centres unmarked)", "AC50": "E, E"}, {"compound": "Fc1ccc2nc(N3CCc4[nH]cnc4C3c3nc4ccccc4s3)oc2c1", "note": "(centres unmarked)", "AC50": "E, E"}]}, {"target": "T1, human PAH with the R408W mutation", "assay": "Cell Based Phenylalanine Flux Assay", "design": "scale not given here", "details": "A375 cells expressing human R408W PAH; 24 hrs with compound; 13C-Tyrosine by LC-MS; average where tested multiple times; read-out: AC50", "units": {"AC50": "nM"}, "values": [{"compound": "c1ccc2sc([C@@H]3c4nc[nH]c4CCN3CC3CC3)nc2c1", "note": "(single isomer, unassigned)", "AC50": "1000 to 5000"}, {"compound": "O=C(c1ncco1)N1CCc2[nH]cnc2[C@H]1c1nc2ccccc2[nH]1", "note": "[(S)-(4-(1H-benzo[d]imidazol-2-yl)-1,4,6,7-tetrahydro-5H-imidazo[4,5-c]pyridin-5-yl)(oxazol-2-yl)methanone]", "AC50": "1000 to 5000"}, {"compound": "Cn1nnc(C(=O)N2CCc3[nH]cnc3C2c2nc3ccccc3s2)n1", "note": "(centres unmarked)", "AC50": "1000 to 5000"}, {"compound": "CN(C)Cc1cc(C(=O)N2CCc3[nH]cnc3C2c2nc3c(F)cccc3s2)n(C)n1", "note": "(centres unmarked)", "AC50": "> 5000"}, {"compound": "O=C(c1cnn2cccc(F)c12)N1CCc2[nH]cnc2C1c1nc2c(F)cccc2s1", "note": "(centres unmarked)", "AC50": "> 5000"}, {"compound": "O=C(c1cnco1)N1CC2(CC2)c2[nH]cnc2C1c1nc2ccccc2s1", "note": "(centres unmarked)", "AC50": "> 5000"}, {"compound": "O=C(c1cnco1)N1CCc2[nH]cnc2C1c1nc2ccc(F)cc2s1", "note": "(centres unmarked)", "AC50": "1000 to 5000"}, {"compound": "[2H]C([2H])([2H])OCc1cc(C(=O)N2CCc3[nH]cnc3C2c2nc3c(F)cccc3s2)n(C)n1", "note": "(centres unmarked)", "AC50": "> 5000"}, {"compound": "COCc1cc(C(=O)N2CCc3[nH]cnc3C2c2nc3c(F)cccc3s2)[nH]n1", "note": "(centres unmarked)", "AC50": "1000 to 5000"}, {"compound": "O=C(c1cnn2cc(F)ccc12)N1CCc2[nH]cnc2C1c1nc2ccc(F)cc2s1", "note": "(centres unmarked)", "AC50": "> 5000"}, {"compound": "O=C(c1nc2ccccc2s1)N1CCc2[nH]cnc2C1c1nc2cccc(F)c2s1", "note": "(centres unmarked)", "AC50": "1000 to 5000"}, {"compound": "O=C(c1oc(-c2ccccn2)nc1C1CC1)N1CCCc2[nH]cnc2C1c1nc2ccccc2[nH]1", "note": "(centres unmarked)", "AC50": "1000 to 5000"}, {"compound": "O=C(Cc1nc2ccccc2s1)N1CCc2[nH]cnc2C1c1nc2ccccc2s1", "note": "(centres unmarked)", "AC50": "1000 to 5000"}, {"compound": "Cn1nc(C(C)(C)O)nc1C(=O)N1CCc2[nH]cnc2C1c1nc2c(F)cccc2s1", "note": "(centres unmarked)", "AC50": "> 5000"}, {"compound": "Cc1nnc(CCC(=O)N2CCc3[nH]cnc3C2c2nc3c(F)cccc3s2)s1", "note": "(centres unmarked)", "AC50": "1000 to 5000"}]}]}
